Results published in US20250044299A1, “PROTEIN STABILITY ASSAY” (Medicines Discovery Catapult Limited, priority 2021, published 2025).

Legend:
Type in all cases: binding
[1] = target: p38α MAPK (Homo sapiens, UniProt Q16539); test: Protein stability assay screening study, AlphaLISA endpoint, HEK293T cell lysate, compound concentration response at fixed AEA or EA (Example 2); parameters: endogenous in cells; host or cells: HEK293T; conditions: fixed 22% AEA or 20% EA, 10-point concentration response
Sequence of p38α MAPK (Q16539 whole entry): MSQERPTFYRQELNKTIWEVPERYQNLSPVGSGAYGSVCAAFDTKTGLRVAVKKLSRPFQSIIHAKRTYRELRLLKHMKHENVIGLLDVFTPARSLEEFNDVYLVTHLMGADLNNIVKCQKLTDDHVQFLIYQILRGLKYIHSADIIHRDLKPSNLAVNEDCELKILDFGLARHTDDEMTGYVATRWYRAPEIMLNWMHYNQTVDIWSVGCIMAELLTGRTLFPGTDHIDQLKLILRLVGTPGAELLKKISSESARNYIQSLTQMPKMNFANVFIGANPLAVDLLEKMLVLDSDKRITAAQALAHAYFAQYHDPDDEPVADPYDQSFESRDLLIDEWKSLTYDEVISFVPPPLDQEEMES
Method: The fixed denaturant concentration to be added was made up as a 5/4 stock so that when 8 μl of denaturant was added to 2 μl lysate the final volume was 10 μl and the denaturant concentrations were as listed above. After compound/lysate incubation was complete 8 μl of the prepared AEA or EA stock was added to each well of separate plates, the contents of the plates were settled by a short pulse spin, sealed, and then incubated with shaking at 800 rpm for 120 minutes on a heated plate shaker set to 21° C. For signal detection an antibody detection mix was made up no more than 20 minutes prior to use. […] 10 μl of antibody bead mix was added to each test well, the contents of the plates were settled by a short pulse spin, sealed, shaken gently for 1-2 minutes, wrapped in foil, and then incubated for 16-18 hours in the dark. After incubation the plates were read on a fluorescence detecting plate reader (Excitation 680 nm, Emission 615 nm) to determine well signals. Concentration response curves were produced from normalised data using the Genedata Screener data analysis package, and EC50 values generated to allow data comparison between the two denaturant types.

[2] = target: T1, AKT1 (Homo sapiens, UniProt P31749); test: Protein stability assay, AlphaLISA endpoint, HEK293T cell lysate, EA (Example 8)
T1 construct: endogenous in cells; host or cells: HEK293T
T1 sequence (P31749 whole entry): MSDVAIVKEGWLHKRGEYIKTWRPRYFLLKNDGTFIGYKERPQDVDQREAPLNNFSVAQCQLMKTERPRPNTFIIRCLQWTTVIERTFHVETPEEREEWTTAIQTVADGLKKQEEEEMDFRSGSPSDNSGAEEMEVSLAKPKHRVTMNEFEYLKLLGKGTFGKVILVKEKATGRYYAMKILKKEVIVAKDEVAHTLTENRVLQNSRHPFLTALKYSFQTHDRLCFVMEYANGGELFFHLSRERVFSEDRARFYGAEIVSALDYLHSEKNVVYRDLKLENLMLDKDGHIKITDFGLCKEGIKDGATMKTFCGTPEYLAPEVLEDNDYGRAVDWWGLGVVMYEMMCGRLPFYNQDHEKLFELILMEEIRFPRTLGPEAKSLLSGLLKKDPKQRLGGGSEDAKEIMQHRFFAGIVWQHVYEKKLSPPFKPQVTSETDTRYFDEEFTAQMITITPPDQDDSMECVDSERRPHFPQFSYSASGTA
Method: (§1) Lysate from HEK293T cells grown in continuous culture at 5% CO2/37° C. in full growth media (RPMI (Gibco 11835-063), 10% FCS (Gibco F7524) 1% Glutamax (Gibco 35050-061)) was produced by growing cells in flasks to 85% confluence, removing from the surface using 3 ml Tryple Select (Gibco 12563011), centrifuging (1000 rpm for 4 minutes) to pellet, washing cell pellet two times in DPBS (Gibco 14190-094), resuspending in 1 ml of DPBS (Gibco 14190-094) containing 1× HALT Protease and Phosphatase inhibitor cocktail (Thermo Scientific 78440) per flask and lysing by three cycles of a liquid nitrogen freeze followed by thawing at room temperature. […]
To run the protein stability assay, an aliquot of HEK293T cell lysate at 4 μg/μl was thawed at room temperature and 2 μl added to each well of a 384-well White ProxiPlate (Perkin Elmer 6008280) containing […] MK-2206 (LKT Laboratories M400220) or an equivalent volume of DMSO dosed using the Labcyte ECHO. […] While incubating, fresh 100% EA (Ethanol (10437341) and Acetic Acid (10365020), all from Fisher Scientific in a ratio of 100:0.1) denaturant was made in a glass bottle ready for use. An aliquot of 100% EA was diluted to 50% in DPBS (Gibco 14190-094) ready to produce titration curves of denaturant. […]

[3] = target: T2, CDK9 (Homo sapiens, UniProt P50750); test: Protein stability assay with Western blot endpoint, cell lysate, AEA titration (Example 5); conditions: 100 μM compound as printed, vs DMSO
T2 construct: Lysate from U-2 OS cells grown in continuous culture; endogenous in cells; b320 says HEK293T
T2 sequence (P50750 whole entry): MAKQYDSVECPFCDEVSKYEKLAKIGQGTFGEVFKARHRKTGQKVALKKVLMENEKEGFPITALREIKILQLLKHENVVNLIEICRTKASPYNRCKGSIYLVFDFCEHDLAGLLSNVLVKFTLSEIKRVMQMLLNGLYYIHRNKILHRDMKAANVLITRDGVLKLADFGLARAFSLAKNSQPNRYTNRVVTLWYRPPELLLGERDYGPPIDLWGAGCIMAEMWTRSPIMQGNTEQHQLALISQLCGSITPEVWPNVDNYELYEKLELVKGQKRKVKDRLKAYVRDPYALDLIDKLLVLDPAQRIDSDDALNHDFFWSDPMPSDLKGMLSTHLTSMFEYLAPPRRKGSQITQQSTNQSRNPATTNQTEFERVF
T2 sequence (O60563 whole entry partner): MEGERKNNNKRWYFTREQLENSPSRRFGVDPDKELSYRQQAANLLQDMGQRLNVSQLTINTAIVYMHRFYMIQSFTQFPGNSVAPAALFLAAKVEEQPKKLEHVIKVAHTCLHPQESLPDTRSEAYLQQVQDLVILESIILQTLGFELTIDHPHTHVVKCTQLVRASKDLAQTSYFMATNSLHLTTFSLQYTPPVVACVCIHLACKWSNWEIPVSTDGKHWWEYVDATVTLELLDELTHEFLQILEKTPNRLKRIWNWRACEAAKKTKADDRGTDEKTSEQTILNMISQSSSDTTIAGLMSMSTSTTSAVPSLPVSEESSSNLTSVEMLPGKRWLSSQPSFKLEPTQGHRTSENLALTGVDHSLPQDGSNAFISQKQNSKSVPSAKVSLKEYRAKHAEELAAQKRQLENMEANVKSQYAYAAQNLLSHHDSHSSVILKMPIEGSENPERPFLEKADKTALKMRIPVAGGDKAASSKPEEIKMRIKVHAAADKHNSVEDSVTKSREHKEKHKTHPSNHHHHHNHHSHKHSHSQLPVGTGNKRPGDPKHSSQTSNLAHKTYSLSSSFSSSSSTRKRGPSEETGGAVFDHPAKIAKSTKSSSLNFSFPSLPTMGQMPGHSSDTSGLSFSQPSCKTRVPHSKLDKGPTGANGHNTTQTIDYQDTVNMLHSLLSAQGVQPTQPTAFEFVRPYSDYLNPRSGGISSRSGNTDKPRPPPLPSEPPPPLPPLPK
Method: as §1, with “Lysate from U-2 OS cells grown” for “Lysate from HEK293T cells grown”, “cells in T175 flasks to” for “cells in flasks to”, “14190-094), resuspending 1 ml” for “14190-094), resuspending in 1 ml”
Lysate/compound mixes were incubated for 30-60 minutes at room temperature. While incubating, fresh 100% AEA (Acetone (11443733) Ethanol (10437341) and Acetic Acid (10365020), all from Fisher Scientific in a ratio of 50:50:0.1) denaturant was made in a glass bottle ready for use. An aliquot of 100% AEA was diluted to 50% in DPBS (Gibco 14190-094) ready to produce either titration curves or a fixed concentration of denaturant. […]

In the case of `Cc1c(F)cc(C(=O)NC2CC2)cc1-c1c(F)cn2c(C(C)(C)C)nnc2c1F` [AL 8697], the “stabilisation of protein, compound concentration response curves” value [1] is reported as “stabilisation of protein in a dose dependent manner”.

For `NC1(c2ccc(-c3nc4ccn5c(=O)[nH]nc5c4cc3-c3ccccc3)cc2)CCC1` [MK-2206], the “stabilisation of AKT1 protein (shift in protein denaturation curves)” value ([2]; 10 μM compound, EA titration, vs DMSO only) was “stabilisation of AKT1 protein” and the “AKT1 protein stabilisation, concentration response curve” value ([2]; fixed 18% EA) was “AKT1 protein stabilisation by MK-2206 in a dose dependent manner”.

In the case of `O=c1ncn2nc(Sc3ccc(F)cc3F)ccc2c1-c1c(Cl)cccc1Cl` [VX 745], the “stabilisation of protein, compound concentration response curves” value [1] is reported as “stabilisation of protein in a dose dependent manner”.

`Cc1ncc(-c2ccnc(Nc3ccc(S(C)(=O)=O)cc3)n2)n1C(C)C` [AZD5438] was tested, and the “stabilisation of CDK9 protein against chemical denaturation” value [3] was “increased stabilisation of CDK9 protein”.
